Here are results for 1 molecule from article PMC3111191, “Molecular Evolution of Multiple Arylalkylamine N-Acetyltransferase (AANAT) in Fish” (Marine Drugs, 2011).

Assay [1] has as its target T1, AANAT1a (Sparus aurata, UniProt Q68SL7).
T1 construct: gene AANAT1
As to the kind of experiment: radiochemical assay, inhibition of tryptamine acetylation. The class given is biochemical. The note with it: read-out: % inhibition at 5 mM.

For assay [2], the target named is AANAT2 (Sparus aurata, UniProt Q68SL6). The assay is described as above. The class given is biochemical. Conditions: read-out: % inhibition at 50 mM.
Chain of AANAT2 (Q68SL6 1-205): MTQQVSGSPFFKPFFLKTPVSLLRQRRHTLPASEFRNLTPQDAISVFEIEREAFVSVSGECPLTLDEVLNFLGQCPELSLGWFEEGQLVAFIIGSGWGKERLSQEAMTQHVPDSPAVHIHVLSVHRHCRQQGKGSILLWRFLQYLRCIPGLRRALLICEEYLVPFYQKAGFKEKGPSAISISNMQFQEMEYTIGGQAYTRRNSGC

T1 sequence (Q68SL7 1-202): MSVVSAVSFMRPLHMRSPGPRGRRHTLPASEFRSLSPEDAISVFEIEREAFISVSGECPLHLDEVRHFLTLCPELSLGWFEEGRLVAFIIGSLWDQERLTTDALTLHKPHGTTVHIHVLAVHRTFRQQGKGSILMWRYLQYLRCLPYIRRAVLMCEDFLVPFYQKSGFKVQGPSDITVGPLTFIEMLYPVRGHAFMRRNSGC

As a reminder, the inhibition is the change of the read-out against control, counted positive when it falls. Take `NCCc1ccc(O)c(O)c1` [dopamine]: the inhibition at 5000 µM in assay [1] was around 60%. Moreover, the inhibition at 50000 µM in assay [2] is around 60%.
